Among the data in patent US20240261424A1, “ANTIBODY DRUG CONJUGATE” (NATIONAL CANCER CENTER, priority 2020, published 2024) are IC50 values, retold here.

SMILES strings stand for the structures. Like-named read-outs stand apart in the source and are kept apart here. Where a SMILES comes first, the peptide text is derived from it. [ ]: non-standard residue; d: D form. The star is where a group is joined. Dolaproine = CO[C@@H]([C@@H]1CCCN1)[C@@H](C)C(=O)O; Dil = CC[C@H](C)[C@H](NC)[C@@H](CC(=O)O)OC; X1 = C[C@@H](N*)[C@@H](O)c1ccccc1; NMeV = CN[C@H](C(=O)O)C(C)C

The test system of experiment [1] is human pancreatic adenocarcinoma cell line (BxPC-3). The experiment in a line: Cell-killing effect on BxPC-3. It is filed as cell-based. Particulars: read-out: IC50 values for BxPC-3. The protocol: (§1) The ADCs prepared above were evaluated in vitro for their cell-killing effects on human pancreatic adenocarcinoma cells by the following method.
(§2) RPMI-1640 supplemented with 10% fetal bovine serum and penicillin-streptomycin-[…] (×100) suspension was used as the culture medium. Human pancreatic adenocarcinoma BxPC-3, PSN-1, and HPAF-II were adjusted to 5000 cells/mL, 2000 cells/mL, and 5000 cells/mL, respectively, and seeded on 96-well plates at 100 μL/well and allowed to stand overnight in a CO2 incubator (37° C.).
(§3) The ADCs, Dxd single agent, and MMAE single agent were each adjusted with a culture solution so that the final concentration (in terms of MMAE and Dxd) was 0.1, 0.3, 1, 3, 10, 30, 100 nM, or the like, and were added at 100 μL/well to a 96-well plate inoculated with each human pancreatic adenocarcinoma, and then allowed to stand in a CO2 incubator (37° C.) for 6 days. Then, the culture medium containing the drug was removed with an aspirator, and the number of viable cells was measured by Cell Counting Kit-8 (manufactured by Dojindo Laboratories) according to the attached protocol. The reaction time of the reagent was three hours, and the absorbance was measured by SpectraMax Paradigm (manufactured by Molecular Devices). FIGS. 1A to 1E show the results of the cell-killing effects.

Experiment [2] has as its system human pancreatic adenocarcinoma cell line (PSN-1). Kind of experiment: Cell-killing effect on PSN-1. The following applies: read-out: IC50 values for PSN-1. The format is cell-based. The protocol:
as §1, §2, §3

As to `CC[C@@]1(O)C(=O)OCc2c1cc1n(c2=O)Cc2c-1nc1cc(F)c(C)c3c1c2[C@@H](NC(=O)CO)CC3` [Dxd], the half-maximal inhibitory concentration (IC50) (usually the midpoint of a concentration-inhibition curve) in experiment [1] (Homo sapiens, BXPC-3, 144 h) was determined as 2.58 ± 0.26 nM; in experiment [2] (Homo sapiens, PSN1, 144 h), 7.92 ± 0.84 nM.
As for `CC[C@H](C)[C@@H]([C@@H](CC(=O)N1CCC[C@H]1[C@H](OC)[C@@H](C)C(=O)N[C@H](C)[C@@H](O)c1ccccc1)OC)N(C)C(=O)[C@@H](NC(=O)[C@@H](NC)C(C)C)C(C)C` [MMAE, monomethyl auristatin E] (H-[NMeV]V[Dil][Dolaproine]-X1), the 50% inhibitory concentration (IC50) in experiment [1] (FIG. 1A, concentration in terms of MMAE and Dxd, 6 days, Cell Counting Kit-8) was determined as 0.62 ± 0.04 nM; in experiment [2] (FIG. 1B, concentration in terms of MMAE and Dxd, 6 days, Cell Counting Kit-8), 0.73 ± 0.04 nM.
